Test results reported in patent publication US12522582B2 (Gilead Sciences, Inc., priority 2022, dated 2026).
pEC50: −log10 of the molar value.

Legend:
[1] = MT-4 CC50 Assay (CellTiter Glo); type: cell-based; details: human, MT-4 cells, luminescence, read-out: CC50-MT4
Method: Compounds were tested in 384-well plates: 18 compounds in duplex. Compounds were diluted in 7 points, 3-fold with DMSO by Bravo. Assay plate, which contains 20 uL medium with compounds, was seeded 2000 MT-4 cells in 20 uL/well by Multi-drop to start the assay. The plate was incubated at 37° C. for 5 days. On 6th day, the CellTiter Glo 40 uL was added in each well. Luminescence was read by Victor II.

[2] = system: HSV-2 virus (MS strain); assay: HSV-2 Cellomics Assay (immunofluorescence of HSV protein gD in infected ARPE-19 cells)
[3] = system: HSV-2 virus (MS strain); assay: HSV qPCR Assay (HSV replication in ARPE-19 cells)
[4] = Human alphaherpesvirus 2, ARPE-19, 16 h, read-out: EC50-HSV2-10% Human Serum
[5] = Human alphaherpesvirus 2, ARPE-19, 16 h, read-out: EC50-HSV2-FBS
[6] = Human alphaherpesvirus 2, ARPE-19, read-out: EC50 in HSV qPCR assay
[7] = Human alphaherpesvirus 2, ARPE-19, read-out: EC50-HSV2-qPCR

SMILES | CC50 at 5 days [1] [µM] | pEC50 [2, 4] | pEC50 [2, 5] | pEC50 [3, 6] | pEC50 ([2]; Human alphaherpesvirus 2, ARPE-19, read-out: EC50 in HSV-2 Cellomics assay) | pEC50 [3, 7]
NS(=O)(=O)c1ccc2c(c1)N(C(=O)[C@@H]1Cc3ccc(-c4ccccn4)cc3C1)CC21CC1 [Example 64, (R)-1′-(5-(pyridin-2-yl)-2,3-dihydro-1H-indene-2-carbonyl)spiro[cyclopropane-1,3′-indoline]-6′-sulfonamide] | ≥ 10 | ≤ 5.00 | 6.94 |  |  | 
C[C@@H]1c2cc(F)c(S(N)(=O)=O)cc2N(C(=O)[C@@H]2Cc3ccc(-c4ccccn4)cc3C2)[C@@H]1C [Example 48, (2R,3R)-5-fluoro-2,3-dimethyl-1-((R)-5-(pyridin-2-yl)-2,3-dihydro-1H-indene-2-carbonyl)indoline-6-sulfonamide] | ≥ 10 | 6.98 | 7.80 |  |  | 
Cc1nc(N(C)C(=O)Cc2ccc(-c3ccccn3)cc2)sc1S(N)(=O)=O [pritelivir, reference compound] |  |  |  | 7.85 | 6.82 | 
C[C@@H]1Cc2ccc(S(N)(=O)=O)cc2N1C(=O)C1Cc2cc(-c3ccccn3)ccc2O1 (some centres unmarked) [Example 57] | ≥ 10 | 6.42 | 7.46 |  |  | 
NS(=O)(=O)c1ccc2c(c1)N(C(=O)[C@H]1Cc3ccc(-c4cnccn4)cc3C1)CC2 [Example 86, (S)-1-(5-(pyrazin-2-yl)-2,3-dihydro-1H-indene-2-carbonyl)indoline-6-sulfonamide] | 28.5 |  | 6.34 |  |  | 
Cc1cccc(-c2ccc3c(c2)C[C@H](C(=O)N2CCc4ccc(S(N)(=O)=O)cc42)C3)n1 [Example 90, (R)-1-(5-(6-methylpyridin-2-yl)-2,3-dihydro-1H-indene-2-carbonyl)indoline-6-sulfonamide] | 36.9 | 4.84 | 7.64 |  |  | 
NS(=O)(=O)c1ccc2c(c1)N(C(=O)[C@@H]1Cc3ccc(-n4cccn4)cc3C1)CC2 [Example 91, (R)-1-(5-(1H-pyrazol-1-yl)-2,3-dihydro-1H-indene-2-carbonyl)indoline-6-sulfonamide] | ≥ 50 | 4.94 | 7.40 |  |  | 
C[S@](=N)(=O)c1ccc2c(c1)N(C(=O)[C@@H]1Cc3ccc(-c4ccccn4)cc3C1)CC2 (single isomer, unassigned) [Example 33] | ≥ 50 | 5.86 | 6.78 |  |  | 
Cc1cc2c(cc1S(N)(=O)=O)N(C(=O)[C@@H]1Cc3ccc(-c4ccccn4)cc3C1)[C@H](C)C2 [Example 63, (R)-2,5-dimethyl-1-((R)-5-(pyridin-2-yl)-2,3-dihydro-1H-indene-2-carbonyl)indoline-6-sulfonamide] | ≥ 10 | 6.04 | 7.60 |  |  | 
CC1Cc2ccc(S(N)(=O)=O)cc2N1C(=O)C1Cc2ccc(-c3ccccn3)cc2C1 (centres unmarked) [Example 3] |  | ≤ 4.60 | 6.89 |  |  | 7.73
C[S@](=N)(=O)c1cc2c(cc1F)CCN2C(=O)[C@@H]1Cc2ccc(-c3cc(F)ccc3F)cc2C1 [Example 53] | ≥ 10 | 6.38 | 7.32 |  |  | 
NS(=O)(=O)c1ccc2c(c1)N(C(=O)[C@@H]1Cc3ccc(-c4cccc(F)n4)cc3C1)CC2 [Example 85, (R)-1-(5-(6-fluoropyridin-2-yl)-2,3-dihydro-1H-indene-2-carbonyl)indoline-6-sulfonamide] | 0.33 | 5.12 | 8.05 |  |  | 
Cc1cccc(-c2ccc3c(c2)CC(C(=O)N2CCc4cc(F)c(S(N)(=O)=O)cc42)C3C)n1 (centres unmarked) [Example 99, 5-fluoro-1-(1-methyl-5-(6-methylpyridin-2-yl)-2,3-dihydro-1H-indene-2-carbonyl) indoline-6-sulfonamide] | ≥ 10 | 6.40 | 7.20 |  |  | 
C[C@@H]1[C@@H](C)c2cc(F)c(S(N)(=O)=O)cc2N1C(=O)[C@@H]1Cc2ccc(-c3ccccn3)cc2C1 [Example 46, (2R,3S)-5-fluoro-2,3-dimethyl-1-((R)-5-(pyridin-2-yl)-2,3-dihydro-1H-indene-2-carbonyl)indoline-6-sulfonamide] | ≥ 10 | 6.84 | 7.80 |  |  | 
CC[C@@H]1Cc2ccc(S(N)(=O)=O)cc2N1C(=O)[C@@H]1Cc2ccc(-c3ccccn3)cc2C1 [Example 68, (R)-2-ethyl-1-((R)-5-(pyridin-2-yl)-2,3-dihydro-1H-indene-2-carbonyl)indoline-6-sulfonamide] | ≥ 10 | 6.63 | 7.51 |  |  | 
NS(=O)(=O)c1ccc2c(c1)N(C(=O)C1Cc3ccc(-n4cccn4)cc3C1)CC2 (centres unmarked) [Example 78, 1-(5-(1H-pyrazol-1-yl)-2,3-dihydro-1H-indene-2-carbonyl)indoline-6-sulfonamide] | ≥ 50 | 4.68 | 7.19 |  |  | 
NS(=O)(=O)c1ccc2c(c1)N(C(=O)[C@H]1Cc3ccc(-c4ncccc4F)cc3C1)CC2 [Example 88, (S)-1-(5-(3-fluoropyridin-2-yl)-2,3-dihydro-1H-indene-2-carbonyl)indoline-6-sulfonamide] | 1.8 |  | 6.27 |  |  | 

SMILES | CC50 at 5 days [1] [µM] | pEC50 [2, 4] | pEC50 [2, 5] | pEC50 [3, 6] | pEC50 ([2]; Human alphaherpesvirus 2, ARPE-19, read-out: EC50 in HSV-2 Cellomics assay) | pEC50 [3, 7]
C[C@@H]1Cc2cc(F)c(S(N)(=O)=O)cc2N1C(=O)[C@@H]1Cc2ccc(-c3cc(F)ccc3Cl)cc2C1 [Example 50, (R)-1-((R)-5-(2-chloro-5-fluorophenyl)-2,3-dihydro-1H-indene-2-carbonyl)-5-fluoro-2-methylindoline-6-sulfonamide] | ≥ 10 | 6.67 | 7.21 |  |  | 
Cc1cccc(C)c1N(CC(=O)Nc1ccc(-c2ncon2)cc1)C(=O)C1CCS(=O)(=O)CC1 [amenamevir, reference compound] |  |  |  | 7.85 |  | 
C[S@](=N)(=O)c1cc2c(cc1F)CCN2C(=O)[C@@H]1Cc2ccc(-c3ccccn3)cc2C1 [Example 41, (S)-(5-fluoro-1-((R)-5-(pyridin-2-yl)-2,3-dihydro-1H-indene-2-carbonyl)indolin-6-yl)(imino)(methyl)-16-sulfanone] | ≥ 10 | 6.85 | 7.43 |  |  | 
Nc1nc2c(ncn2COCCO)c(=O)[nH]1 [acyclovir, reference compound] |  |  |  | 5.90 |  | 
NS(=O)(=O)c1ccc2c(c1)N(C(=O)C1Cc3ccc(-c4cocn4)cc3C1)CC2 (centres unmarked) [Example 23] | ≥ 50 | 4.96 | 7.72 |  |  | 
C[C@@H]1Cc2ccc(S(N)(=O)=O)cc2N1C(=O)[C@H]1Cc2cc(-c3cc(F)ccc3F)ccc2O1 [Example 123, (R)-1-((R)-5-(2,5-difluorophenyl)-2,3-dihydrobenzofuran-2-carbonyl)-2-methylindoline-6-sulfonamide] | ≥ 10 | 6.54 | 7.34 |  |  | 
CC1c2ccc(-n3cccn3)cc2CC1C(=O)N1CCc2cc(F)c(S(N)(=O)=O)cc21 (centres unmarked) [Example 100] | 5.43 | 6.97 | 7.47 |  |  | 
NS(=O)(=O)c1ccc2c(c1)N(C(=O)C1Cc3ccc(-c4ccccc4F)cc3C1)CC2 (centres unmarked) [Example 70, 1-(5-(2-fluorophenyl)-2,3-dihydro-1H-indene-2-carbonyl) indoline-6-sulfonamide] |  | ≤ 4.60 | 7.04 |  |  | 7.59
NS(=O)(=O)c1cc2c(cc1F)CCN2C(=O)C1Cc2ccc(-c3ccccn3)cc2C1 (centres unmarked) [Example 8] | 42.3 | 4.64 | 8.00 |  |  | 
CC[C@@H]1Cc2cc(F)c(S(N)(=O)=O)cc2N1C(=O)[C@@H]1Cc2ccc(-c3ccccn3)cc2C1 [Example 113] | ≥ 10 | 6.77 | 7.72 |  |  | 
C[C@H]1CN(C(=O)[C@H]2Cc3cc(-c4ccccn4)ccc3[C@@H]2C)c2cc(S(N)(=O)=O)c(F)cc21 [Example 104, (R)-5-fluoro-3-methyl-1-((1R,2S)-1-methyl-5-(pyridin-2-yl)-2,3-dihydro-1H-indene-2-carbonyl)indoline-6-sulfonamide] | ≥ 10 | 7.19 | 7.70 |  |  | 
NS(=O)(=O)c1ccc2c(c1)N(C(=O)C1Cc3cc(-c4ccccn4)ccc3O1)CC2 (centres unmarked) [Example 36] | ≥ 50 | ≤ 4.60 | 7.15 |  |  | 
CC1c2ccc(-c3ccccn3)cc2CC1C(=O)N1CCc2cc(F)c(S(N)(=O)=O)cc21 (centres unmarked) [Example 96, 5-fluoro-1-(1-methyl-5-(pyridin-2-yl)-2,3-dihydro-1H-indene-2-carbonyl) indoline-6-sulfonamide] | 12.9 | 7.07 | 7.62 |  |  | 
C[C@@H]1Cc2cc(Br)c(S(N)(=O)=O)cc2N1C(=O)[C@@H]1Cc2ccc(-c3ccccn3)cc2C1 [Example 38, (R)-5-bromo-2-methyl-1-((R)-5-(pyridin-2-yl)-2,3-dihydro-1H-indene-2-carbonyl)indoline-6-sulfonamide] | ≥ 10 | 6.27 | 7.72 |  |  | 
NS(=O)(=O)c1cc2c(cc1F)CCN2C(=O)C1Cc2cc(-c3ccccn3)ccc2O1 (centres unmarked) [Example 37] | ≥ 50 | 4.71 | 8.00 |  |  | 
NS(=O)(=O)c1ccc2c(c1)N(C(=O)C1Cc3ccc(-c4cscn4)cc3C1)CC2 (centres unmarked) [Example 19] | 37.7 | ≤ 4.60 | 7.64 |  |  | 
C[C@@H]1Cc2cc(F)c(S(N)(=O)=O)cc2N1C(=O)[C@@H]1Cc2ccc(-c3cc(F)cc(F)c3F)cc2C1 [Example 62, (R)-5-fluoro-2-methyl-1-((R)-5-(2,3,5-trifluorophenyl)-2,3-dihydro-1H-indene-2-carbonyl)indoline-6-sulfonamide] | ≥ 10 | 6.50 | 7.23 |  |  | 
